Measured values from US11644474B2, “Use of macimorelin in assessing growth hormone deficiency in children” (Æterna Zentaris GmbH, priority 2020, dated 2023).
Several values for one entry are separate records, joined by “and”; a condition that tells them apart may be missing. Equal values may be shown once. Entries after “also recorded” stand apart in the source; their conditions may differ. Read-outs that look alike come from different tables or passages of the source.

Columns and labels:
Type in all cases: in vivo, human (paediatric subjects with suspected GHD)
[1] = Macimorelin plasma pharmacokinetics after single oral dose (Study AEZS-130-P01); settings: for half-life: read-out: mean elimination half-life (converted); for Cmax: n=8 children; for AUC(0-t): read-out: mean AUC0-6 of macimorelin
Protocol: (§1) This was an open-label, group comparison, dose escalation trial to investigate the safety, tolerability, pharmacokinetics and pharmacodynamics of single-dose 0.25, 0.5, and 1 mg/kg oral macimorelin acetate in paediatric subjects with suspected GHD. The macimorelin GHST was administered between two standard GHST, conducted as per local clinical practice, with a recovery period of 7-28 days between tests. For the purposes of obtaining a detailed macimorelin PK profile in children, blood samples were collected pre-dose (±15 min) and 15, 30, 45, 60, 90, 120, and 360 minutes after macimorelin acetate intake.
(§2) The main features of Study P01 are summarized as follows: • Sequential cohorts of trial participants received macimorelin at ascending single oral doses: 0.25 mg/kg body weight in Cohort 1 (C1), 0.5 mg/kg body weight in Cohort 2 (C2), and 1 mg/kg body weight in Cohort 3 (C3). • For determination of macimorelin PK/PD: blood sampling at pre-dose, then 15, 30, 45, 60, 90, 120, and 360 minutes after the administration of macimorelin. • Two standard GHSTs (sGHSTs) had to be performed in a patient according to local practice. The related sGHST agents were considered as ‘background’ and not as IMPs. (Accepted test agents: insulin (insulin tolerance test or ITT), arginine, arginine/growth hormone releasing hormone (GHRH), clonidine, glucagon, L-dopa). Results
Macimorelin plasma concentrations: the analysis of plasma samples for macimorelin concentration was carried out at a central laboratory, Prolytic GmbH, Germany, using a validated liquid chromatography-mass spectrometry (LCMS/MS) method with a detection limit of 0.2 ng/mL (Franz, 2005).
Preliminary pharmacokinetics (PK) were determined by: time of maximum measured concentration (tmax) and maximum concentration (Cmax) of macimorelin plasma concentrations in the sampling period.

[2] = Safety and tolerability of single oral macimorelin (adverse events, questionnaires, safety laboratory, ECG); settings: all three dosing cohorts, 0.25-1 mg/kg single oral dose; for safety and tolerability: questionnaires, safety laboratory, ECG
Protocol: as §1

GH secretion = assay: Macimorelin growth hormone stimulation test (GHST): serum GH after oral macimorelin (PD); settings: for Peak GH after Macimorelin GHST: individual patients, serum
Protocol: as §1, §2
GH serum concentration: the analysis of serum samples for GH concentration was carried out at a central laboratory by a validated immunochemiluminometric assay (IDS-iSYS Human Growth Hormone (hGH), Immunodiagnostic Systems Ltd [UK]) (Manolopoulou et al., 2012). This assay is standardized to the recombinant growth hormone calibration standard WHO 98/574, and complies with recommendations on assay standardization as outlined by Clemmons (Clemmons, 2011).
The analytical laboratory applied for GH was: Central Laboratory Synevo Łódź, Krakusa Str. 28, 93-515 Łódź. Poland. The lower limit of quantification was <0.05 ng/mL.

[3] = human, C1, 0.25 mg/kg single oral dose, plasma
[4] = human, C2, 0.5 mg/kg single oral dose, plasma
[5] = human, C3, 1 mg/kg single oral dose, plasma

time at which maximum plasma concentrations for macimorelin were mainly observed ([1]; all cohorts, 0.25-1 mg/kg oral): 30 to 45 min
half-life ([1]; human, plasma, C1, 0.25 mg/kg single oral dose): 1.22 h
half-life ([1]; human, plasma, C2, 0.5 mg/kg single oral dose): 1.61 h
half-life ([1]; human, plasma, C3, 1 mg/kg single oral dose): 1.71 h
Tmax ([1]; human, plasma, all three groups C1-C3, 0.25-1 mg/kg oral): 0.5 to 0.75 h
Cmax [1, 3]: 3.46 ng/mL
AUC(0-t) [1, 3]: 6.69 ng·h/mL
Cmax [1, 4]: 8.13 ng/mL
AUC(0-t) [1, 4]: 18 ng·h/mL
Cmax [1, 5]: 12.9 ng/mL
AUC(0-t) [1, 5]: 30.9 ng·h/mL
SMILES: CC(C)(N)C(=O)N[C@H](Cc1c[nH]c2ccccc12)C(=O)N[C@H](Cc1c[nH]c2ccccc12)NC=O [macimorelin]
change of macimorelin AUC with dose ([1]; 0.25, 0.5, 1 mg/kg oral): increased with dose; also recorded: dose-dependent increase; also recorded: increases with the macimorelin dose
change of macimorelin Cmax with dose ([1]; 0.25, 0.5, 1 mg/kg oral): dose-dependent increase; also recorded: dose-proportional increase
change of macimorelin plasma concentrations with dose ([1]; 0.25, 0.5, 1 mg/kg oral, FIG. 1): dose-dependent increase with high inter-individual variability
adverse events related to macimorelin ([2]; 24 children): none were considered related to the macimorelin test; also recorded: No adverse event was reported in relation to macimorelin
safety and tolerability [2]: excellent safety and tolerability
safety and tolerability ([2]; listed as Macimorelin acetate): safe and well tolerated in all dosing cohorts
time within which peak GH levels were observed (GH secretion; C1, 0.25 mg/kg oral): 0.5 to 1 h
mean Tmax of peak GH (GH secretion; C1, 0.25 mg/kg oral (SD 11.3)): 0.875 h
Peak GH after Macimorelin GHST (GH secretion; C1, 0.25 mg/kg oral): 8.61 ng/mL and 0.51 ng/mL and 21.73 ng/mL and 5.22 ng/mL and 10.03 ng/mL and 14.07 ng/mL and 9.78 ng/mL and 8.38 ng/mL
time within which peak GH levels were observed (GH secretion; C2, 0.5 mg/kg oral): 0.25 to 1 h
mean Tmax of peak GH (GH secretion; C2, 0.5 mg/kg oral (SD 13.9)): 0.625 h
Peak GH after Macimorelin GHST (GH secretion; C2, 0.5 mg/kg oral): 5.06 ng/mL and 20.73 ng/mL and 7.41 ng/mL and 10.43 ng/mL and 21.36 ng/mL and 16.41 ng/mL and 9.67 ng/mL and 27.42 ng/mL
time within which peak GH levels were observed (GH secretion; C3, 1 mg/kg oral): 0.5 to 0.75 h
mean Tmax of peak GH (GH secretion; C3, 1 mg/kg oral (SD 8.0)): 0.625 h
stimulation of GH secretion (GH secretion; C3, 1 mg/kg oral, 8 patients): stimulated evidently in all 8 patients; also recorded: evident stimulation of GH secretion in all 8 patients
Peak GH after Macimorelin GHST (GH secretion; C3, 1 mg/kg oral): 17.13 ng/mL and 14.46 ng/mL and 59.73 ng/mL and 49.16 ng/mL and 25.07 ng/mL and 14.63 ng/mL and 11.35 ng/mL and 44.73 ng/mL
mean Tmax of GH release (GH secretion; all cohorts C1-C3): 0.5 to 1 h
time of maximum GH release after macimorelin administration (GH secretion; all cohorts C1-C3): 0.25 to 2 h
time at which peak GH levels were mainly observed following macimorelin intake (GH secretion; all three cohorts): 30 to 60 min
